From ChEMBL document CHEMBL1139651, “Antiarrhythmic activity of 4,6-di(het)aryl-5-nitro-3,4-dihydropyrimidin-(1H)-2-ones and its effects on arterial pressure in rats” (2006)

Test system: Rattus norvegicus
Assay: Antiarrhythmic activity in iv dosed rat
Type: functional
Settings: Heart; for minimal effective dose: read-out: MED

Row | Compound | LD50 [mg/kg] | minimal effective dose [µg/kg] | ED50 [mg/kg]
1 | COC(=O)C1=C(C)NC(C)=C(C(=O)OC)C1c1ccccc1[N+](=O)[O-] [NIFEDIPINE] | 210 | 3500 | –
2 | O=C1NC(c2ccccc2)=C([N+](=O)[O-])C(c2ccccc2)N1 (stereo not given) | > 5000 | 35 | –
3 | O=C1NC(c2ccccc2)=C([N+](=O)[O-])C(c2cccs2)N1 (stereo not given) | > 1000 | 3500 | –
4 | O=C1NC(c2ccccc2)=C([N+](=O)[O-])C(c2ccc(O)cc2)N1 (stereo not given) | > 5000 | 35 | –
5 | O=C1NC(c2ccccc2)=C([N+](=O)[O-])C(c2cccc([N+](=O)[O-])c2)N1 (stereo not given) | > 1000 | 0.045 | –
6 | O=C1NC(c2ccccc2)=C([N+](=O)[O-])C(c2cccc(F)c2)N1 (stereo not given) | > 5000 | 0.35 | –
7 | O=C1NC(c2ccccc2)=C([N+](=O)[O-])C(c2cccnc2)N1 (stereo not given) | > 1000 | 35 | –
8 | COc1ccc(CCN(C)CCCC(C#N)(c2ccc(OC)c(OC)c2)C(C)C)cc1OC (stereo not given) | – | – | 1.1
